Results published in ChEMBL document CHEMBL3885881, “DrugMatrix”.

Species: Rattus norvegicus
Test: DrugMatrix - Regimen: Daily Repeat
Format: toxicity, organism-based, Sprague-Dawley
Design: regimen Daily Repeat, gender Male, age 6-8 weeks
Conditions: in vivo, po, route oral GAVAGE, vehicle .5 % CMC; for ALANINE AMINOTRANSFERASE / ALBUMIN / ALKALINE PHOSPHATASE / ASPARTATE AMINOTRANSFERASE / BLOOD UREA NITROGEN / CHLORIDE / CHOLESTEROL / CREATINE PHOSPHOKINASE / CREATININE / GLUCOSE / LACTATE DEHYDROGENASE / LIPASE / PHOSPHORUS / POTASSIUM / SODIUM / TOTAL BILIRUBIN / TOTAL PROTEIN / URIC ACID: tissue Plasma
[1] = 80 mg/kg, 2184 h, tissue Blood, dose level Low, time 91 day
[2] = 80 mg/kg, 2184 h, dose level Low, time 91 day
[3] = 80 mg/kg, […], tissue Blood, dose level Low, time 28 day
[4] = 80 mg/kg, […], dose level Low, time 28 day
[5] = 150 mg/kg, 72 h, tissue Blood, dose level M1, time 3 day
[6] = 150 mg/kg, 72 h, dose level M1, time 3 day
[7] = 150 mg/kg, 120 h, tissue Blood, dose level M1, time 5 day
[8] = 150 mg/kg, 120 h, dose level M1, time 5 day
[9] = 1500 mg/kg, 72 h, tissue Blood, dose level High, time 3 day
[10] = 1500 mg/kg, 72 h, dose level High, time 3 day
[11] = 1500 mg/kg, 120 h, tissue Blood, dose level High, time 5 day
[12] = 1500 mg/kg, 120 h, dose level High, time 5 day

## O=c1cc(-c2ccccc2)oc2ccc3ccccc3c12 [BETA-NAPHTHOFLAVONE]
[1]
  EOSINOPHIL: 0.76%
  ERYTHROCYTE COUNT: 8.94 x10E6/uL
  HEMATOCRIT: 47.57%
  HEMOGLOBIN: 15.76 G/DL
  LEUKOCYTE COUNT: 15.13 x10E3/uL
  LYMPHOCYTE: 74.26%
  MEAN CORPUSCULAR HEMOGLOBIN: 17.63 pg
  MEAN CORPUSCULAR HEMOGLOBIN CONCENTRATION: 33.13 G/DL
  MEAN CORPUSCULAR VOLUME: 53.23 fL
  MONOCYTE: 1.9%
  NEUTROPHIL: 20.01%
  PLATELET COUNT: 1247.3 x10E3/uL
[2]
  ALANINE AMINOTRANSFERASE: 27.5 u/L
  ALBUMIN: 3.68 G/DL
  ALKALINE PHOSPHATASE: 82.2 u/L
  ASPARTATE AMINOTRANSFERASE: 64.9 u/L
  BLOOD UREA NITROGEN: 15.3 mg/dL
  CHLORIDE: 104 MEQ/L
  CHOLESTEROL: 68.4 mg/dL
  CREATINE PHOSPHOKINASE: 81.3 u/L
  CREATININE: 0.51 mg/dL
  GLUCOSE: 148 mg/dL
  LACTATE DEHYDROGENASE: 43.4 u/L
  LIPASE: 20.6 u/L
  PHOSPHORUS: 8.24 mg/dL
  POTASSIUM: 6.5 MEQ/L
  SODIUM: 150 MEQ/L
  TOTAL BILIRUBIN: 0.21 mg/dL
  TOTAL PROTEIN: 7.08 G/DL
  URIC ACID: 0.93 mg/dL
[3]
  ABSOLUTE BASOPHIL: 190 cells/µL
  ABSOLUTE EOSINOPHIL: 60 cells/µL
  ABSOLUTE LYMPHOCYTE: 13200 cells/µL
  ABSOLUTE MONOCYTE: 300 cells/µL
  ABSOLUTE SEGMENTED NEUTROPHIL: 1910 cells/µL
  BASOPHIL: 1.18%
  EOSINOPHIL: 0.36%
  ERYTHROCYTE COUNT: 8.59 x10E6/uL
  HEMATOCRIT: 48.64%
  HEMOGLOBIN: 16.08 G/DL
  LEUKOCYTE COUNT: 15.78 x10E3/uL
  LYMPHOCYTE: 83.98%
  MEAN CORPUSCULAR HEMOGLOBIN: 18.78 pg
  MEAN CORPUSCULAR HEMOGLOBIN CONCENTRATION: 33.1 G/DL
  MEAN CORPUSCULAR VOLUME: 56.7 fL
  MONOCYTE: 1.92%
  NEUTROPHIL: 12%
  PLATELET COUNT: 1252.8 x10E3/uL
[4]
  ALANINE AMINOTRANSFERASE: 30.4 u/L
  ALBUMIN: 3.64 G/DL
  ALKALINE PHOSPHATASE: 126 u/L
  ASPARTATE AMINOTRANSFERASE: 71.4 u/L
  BLOOD UREA NITROGEN: 13.4 mg/dL
  CHLORIDE: 103.4 MEQ/L
  CHOLESTEROL: 69.8 mg/dL
  CREATINE PHOSPHOKINASE: 116.2 u/L
  CREATININE: 0.48 mg/dL
  GLUCOSE: 156.6 mg/dL
  LACTATE DEHYDROGENASE: 80.8 u/L
  LIPASE: 13 u/L
  PHOSPHORUS: 9.74 mg/dL
  POTASSIUM: 6.34 MEQ/L
  SODIUM: 149.8 MEQ/L
  TOTAL BILIRUBIN: 0.24 mg/dL
  TOTAL PROTEIN: 6.58 G/DL
  URIC ACID: 0.58 mg/dL
[5]
  BASOPHIL: 0.43%
  EOSINOPHIL: 0.3%
  ERYTHROCYTE COUNT: 6.69 x10E6/uL
  HEMATOCRIT: 42.2%
  HEMOGLOBIN: 13.2 G/DL
  LEUKOCYTE COUNT: 11.3 x10E3/uL
  LYMPHOCYTE: 85.87%
  MEAN CORPUSCULAR HEMOGLOBIN: 19.73 pg
  MEAN CORPUSCULAR HEMOGLOBIN CONCENTRATION: 31.23 G/DL
  MEAN CORPUSCULAR VOLUME: 63.13 fL
  MONOCYTE: 2.17%
  NEUTROPHIL: 10.17%
  PLATELET COUNT: 1377.33 x10E3/uL
[6]
  ALANINE AMINOTRANSFERASE: 41.33 u/L
  ALBUMIN: 3.57 G/DL
  ALKALINE PHOSPHATASE: 337.33 u/L
  ASPARTATE AMINOTRANSFERASE: 68.33 u/L
  BLOOD UREA NITROGEN: 13 mg/dL
  CHLORIDE: 103.33 MEQ/L
  CHOLESTEROL: 100 mg/dL
  CREATINE PHOSPHOKINASE: 163.67 u/L
  CREATININE: 0.4 mg/dL
  GLUCOSE: 179 mg/dL
  PHOSPHORUS: 12.8 mg/dL
  POTASSIUM: 6.93 MEQ/L
  SODIUM: 148.33 MEQ/L
  TOTAL BILIRUBIN: 0.4 mg/dL
  TOTAL PROTEIN: 5.97 G/DL
[7]
  BASOPHIL: 0.37%
  EOSINOPHIL: 0.43%
  ERYTHROCYTE COUNT: 7.05 x10E6/uL
  HEMATOCRIT: 42.83%
  HEMOGLOBIN: 13.57 G/DL
  LEUKOCYTE COUNT: 14.17 x10E3/uL
  LYMPHOCYTE: 88.67%
  MEAN CORPUSCULAR HEMOGLOBIN: 19.27 pg
  MEAN CORPUSCULAR HEMOGLOBIN CONCENTRATION: 31.67 G/DL
  MEAN CORPUSCULAR VOLUME: 60.87 fL
  MONOCYTE: 1.77%
  NEUTROPHIL: 7.87%
  PLATELET COUNT: 1364.33 x10E3/uL
[8]
  ALANINE AMINOTRANSFERASE: 42.67 u/L
  ALBUMIN: 3.6 G/DL
  ALKALINE PHOSPHATASE: 295 u/L
  ASPARTATE AMINOTRANSFERASE: 69.33 u/L
  BLOOD UREA NITROGEN: 14 mg/dL
  CHLORIDE: 104 MEQ/L
  CHOLESTEROL: 99 mg/dL
  CREATINE PHOSPHOKINASE: 224.33 u/L
  CREATININE: 0.47 mg/dL
  GLUCOSE: 169 mg/dL
  PHOSPHORUS: 12.43 mg/dL
  POTASSIUM: 6.6 MEQ/L
  SODIUM: 147 MEQ/L
  TOTAL BILIRUBIN: 0.57 mg/dL
  TOTAL PROTEIN: 6 G/DL
[9]
  BASOPHIL: 0.4%
  EOSINOPHIL: 0.7%
  ERYTHROCYTE COUNT: 7.11 x10E6/uL
  HEMATOCRIT: 44.17%
  HEMOGLOBIN: 13.9 G/DL
  LEUKOCYTE COUNT: 12.26 x10E3/uL
  LYMPHOCYTE: 82.2%
  MEAN CORPUSCULAR HEMOGLOBIN: 19.53 pg
  MEAN CORPUSCULAR HEMOGLOBIN CONCENTRATION: 31.47 G/DL
  MEAN CORPUSCULAR VOLUME: 62.13 fL
  MONOCYTE: 2.5%
  NEUTROPHIL: 13.1%
  PLATELET COUNT: 1171.33 x10E3/uL
[10]
  ALANINE AMINOTRANSFERASE: 37 u/L
  ALBUMIN: 3.53 G/DL
  ALKALINE PHOSPHATASE: 263.67 u/L
  ASPARTATE AMINOTRANSFERASE: 61.67 u/L
  BLOOD UREA NITROGEN: 11.67 mg/dL
  CHLORIDE: 103.33 MEQ/L
  CHOLESTEROL: 122.33 mg/dL
  CREATINE PHOSPHOKINASE: 219.67 u/L
  CREATININE: 0.4 mg/dL
  GLUCOSE: 175.67 mg/dL
  PHOSPHORUS: 13.27 mg/dL
  POTASSIUM: 7 MEQ/L
  SODIUM: 145.33 MEQ/L
  TOTAL BILIRUBIN: 0.47 mg/dL
  TOTAL PROTEIN: 5.9 G/DL
[11]
  BASOPHIL: 0.43%
  EOSINOPHIL: 0.17%
  ERYTHROCYTE COUNT: 6.8 x10E6/uL
  HEMATOCRIT: 42.73%
  HEMOGLOBIN: 13.33 G/DL
  LEUKOCYTE COUNT: 11.39 x10E3/uL
  LYMPHOCYTE: 85.5%
  MEAN CORPUSCULAR HEMOGLOBIN: 19.63 pg
  MEAN CORPUSCULAR HEMOGLOBIN CONCENTRATION: 31.3 G/DL
  MEAN CORPUSCULAR VOLUME: 62.77 fL
  MONOCYTE: 1.77%
  NEUTROPHIL: 11.33%
  PLATELET COUNT: 1352 x10E3/uL
[12]
  ALANINE AMINOTRANSFERASE: 37.67 u/L
  ALBUMIN: 3.6 G/DL
  ALKALINE PHOSPHATASE: 289 u/L
  ASPARTATE AMINOTRANSFERASE: 66.67 u/L
  BLOOD UREA NITROGEN: 12.67 mg/dL
  CHLORIDE: 102.33 MEQ/L
  CHOLESTEROL: 101.33 mg/dL
  CREATINE PHOSPHOKINASE: 145 u/L
  CREATININE: 0.33 mg/dL
  GLUCOSE: 186 mg/dL
  PHOSPHORUS: 13.3 mg/dL
  POTASSIUM: 6.73 MEQ/L
  SODIUM: 147.67 MEQ/L
  TOTAL BILIRUBIN: 0.27 mg/dL
  TOTAL PROTEIN: 6.1 G/DL
